Results: ChEMBL document CHEMBL1136896, “Synthesis and biological evaluation of arylhydrazinocyanoacrylates and N-aryl pyrazolecarboxylates” (2009)

What follows are compounds tested on Digitaria sanguinalis (assay: Herbicidal activity against Digitaria sanguinalis (L.) Scop. at 1.5 kg/hectare administered preemergence of first true leaf measured after 10 days). Settings: pre-emergence, 240 h.
Type: functional

SMILES | inhibition at 1500 g/ha
CCOCCOC(=O)c1c(C(C)C)nn(-c2ccc(Cl)cc2)c1N | 0%
CCOCCOC(=O)c1c(C(C)C)nn(-c2ccccc2)c1N | 0%
CCOCCOC(=O)c1c(CC)nn(-c2ccccc2)c1N | 0%

The compounds below were run on Alternaria solani (assay: Fungicidal activity against Alternaria solani assessed as inhibition of mycelium growth at 50 mg/L after 72 hrs). Settings: not given.
Type: functional

SMILES | inhibition at 50 µg/mL
CCOCCOC(=O)c1c(C(C)C)nn(-c2ccc(Cl)cc2)c1N | 0%
CCOCCOC(=O)c1c(C(C)C)nn(-c2ccccc2)c1N | 32%
CCOCCOC(=O)c1c(CC)nn(-c2ccccc2)c1N | 20%

These compounds were tested on Brassica napus (assay: Herbicidal activity against Brassica napus L. at 1.5 kg/hectare administered preemergence of first true leaf measured after 10 days). Settings: pre-emergence, 240 h.
Type: functional

SMILES | inhibition at 1500 g/ha
CCOCCOC(=O)c1c(C(C)C)nn(-c2ccc(Cl)cc2)c1N | 40%
CCOCCOC(=O)c1c(C(C)C)nn(-c2ccccc2)c1N | 15%
CCOCCOC(=O)c1c(CC)nn(-c2ccccc2)c1N | 0%

The compounds below were run on Medicago sativa (assay: Herbicidal activity against Medicago sativa at 1.5 kg/hectare administered postemergence of first true leaf measured after 10 days). Settings: post-emergence, 240 h.
Type: functional

SMILES | inhibition at 1500 g/ha
CCOCCOC(=O)c1c(C(C)C)nn(-c2ccc(Cl)cc2)c1N | 0%
CCOCCOC(=O)c1c(C(C)C)nn(-c2ccccc2)c1N | 0%
CCOCCOC(=O)c1c(CC)nn(-c2ccccc2)c1N | 0%

These compounds were tested on Botryosphaeria berengeriana (assay: Fungicidal activity against Physalospora pyricola assessed as inhibition of mycelium growth at 50 mg/L after 72 hrs). Settings: not given.
Type: functional

SMILES | inhibition at 50 µg/mL
CCOCCOC(=O)c1c(C(C)C)nn(-c2ccc(Cl)cc2)c1N | 33.3%
CCOCCOC(=O)c1c(C(C)C)nn(-c2ccccc2)c1N | 32%
CCOCCOC(=O)c1c(CC)nn(-c2ccccc2)c1N | 1.3%

The compounds below were run on Digitaria sanguinalis (assay: Herbicidal activity against Digitaria sanguinalis at 1.5 kg/hectare administered postemergence of first true leaf measured after 10 days). Settings: post-emergence, 240 h.
Type: functional

SMILES | inhibition at 1500 g/ha
CCOCCOC(=O)c1c(C(C)C)nn(-c2ccc(Cl)cc2)c1N | 0%
CCOCCOC(=O)c1c(C(C)C)nn(-c2ccccc2)c1N | 0%
CCOCCOC(=O)c1c(CC)nn(-c2ccccc2)c1N | 0%

Each compound was assayed on Cladosporium cucumerinum (assay: Fungicidal activity against Cladosporium cucumerinum assessed as inhibition of mycelium growth at 50 mg/L after 72 hrs). Settings: not given.
Type: functional

SMILES | inhibition at 50 µg/mL
CCOCCOC(=O)c1c(C(C)C)nn(-c2ccc(Cl)cc2)c1N | 23.6%
CCOCCOC(=O)c1c(C(C)C)nn(-c2ccccc2)c1N | 1.8%
CCOCCOC(=O)c1c(CC)nn(-c2ccccc2)c1N | 18.2%

The compounds below were run on Medicago sativa (assay: Herbicidal activity against Medicago sativa at 1.5 kg/hectare administered preemergence of first true leaf measured after 10 days). Settings: pre-emergence, 240 h.
Type: functional

SMILES | inhibition at 1500 g/ha
CCOCCOC(=O)c1c(C(C)C)nn(-c2ccc(Cl)cc2)c1N | 0%
CCOCCOC(=O)c1c(C(C)C)nn(-c2ccccc2)c1N | 0%
CCOCCOC(=O)c1c(CC)nn(-c2ccccc2)c1N | 0%

Each compound was assayed on Amaranthus retroflexus (assay: Herbicidal activity against Amaranthus retroflexus at 1.5 kg/hectare administered preemergence of first true leaf measured after 10 days). Settings: pre-emergence, 240 h.
Type: functional

SMILES | inhibition at 1500 g/ha
CCOCCOC(=O)c1c(C(C)C)nn(-c2ccc(Cl)cc2)c1N | 0%
CCOCCOC(=O)c1c(C(C)C)nn(-c2ccccc2)c1N | 0%
CCOCCOC(=O)c1c(CC)nn(-c2ccccc2)c1N | 0%

These compounds were tested on Mycosphaerella arachidis (assay: Fungicidal activity against Cercospora arachidicola assessed as inhibition of mycelium growth at 50 mg/L after 72 hrs). Settings: not given.
Type: functional

SMILES | inhibition at 50 µg/mL
CCOCCOC(=O)c1c(C(C)C)nn(-c2ccc(Cl)cc2)c1N | 23.5%
CCOCCOC(=O)c1c(C(C)C)nn(-c2ccccc2)c1N | 20.6%
CCOCCOC(=O)c1c(CC)nn(-c2ccccc2)c1N | 35.3%

The compounds below were run on Brassica napus (assay: Herbicidal activity against Brassica napus at 1.5 kg/hectare administered postemergence of first true leaf measured after 10 days). Settings: post-emergence, 240 h.
Type: functional

SMILES | inhibition at 1500 g/ha
CCOCCOC(=O)c1c(C(C)C)nn(-c2ccc(Cl)cc2)c1N | 26.4%
CCOCCOC(=O)c1c(C(C)C)nn(-c2ccccc2)c1N | 58.8%
CCOCCOC(=O)c1c(CC)nn(-c2ccccc2)c1N | 61.5%

The compounds below were run on Fusarium graminearum (assay: Fungicidal activity against Gibberella zeae assessed as inhibition of mycelium growth at 50 mg/L after 72 hrs). Settings: not given.
Type: functional

SMILES | inhibition at 50 µg/mL
CCOCCOC(=O)c1c(C(C)C)nn(-c2ccc(Cl)cc2)c1N | 44.4%
CCOCCOC(=O)c1c(C(C)C)nn(-c2ccccc2)c1N | 46.7%
CCOCCOC(=O)c1c(CC)nn(-c2ccccc2)c1N | 46.7%

What follows are compounds tested on Amaranthus retroflexus (assay: Herbicidal activity against Amaranthus retroflexus at 1.5 kg/hectare administered postemergence of first true leaf measured after 10 days). Settings: post-emergence, 240 h.
Type: functional

SMILES | inhibition at 1500 g/ha
CCOCCOC(=O)c1c(C(C)C)nn(-c2ccc(Cl)cc2)c1N | 0%
CCOCCOC(=O)c1c(C(C)C)nn(-c2ccccc2)c1N | 0%
CCOCCOC(=O)c1c(CC)nn(-c2ccccc2)c1N | 0%

The compounds below were run on Cucumis sativus (assay: Growth regulatory activity in cucumber assessed as root growth at 10 mg/L incubated in dark for 5 days). Settings: not given.
Type: functional

SMILES | Activity
CCOCCOC(=O)c1c(C(C)C)nn(-c2ccc(Cl)cc2)c1N | 38.2%
CCOCCOC(=O)c1c(C(C)C)nn(-c2ccccc2)c1N | 46.3%
CCOCCOC(=O)c1c(CC)nn(-c2ccccc2)c1N | 46.3%
